Consider one compound from PubChem BioAssay AID1671289.

Usually IC50 stands for the concentration at which inhibition is half-maximal.

This assay addresses Receptor tyrosine-protein kinase erbB-2 (Homo sapiens) (UniProt P04626). In words: inhibition of HER2 tyrosine kinase activity – biochemical, Z'-LYTE FRET, direct format, recombinant human, dose response (AID 1671289). The conditions noted are these: recombinant ERBB2.

The structures appear in SMILES notation.

Receptor tyrosine-protein kinase erbB-2 (Homo sapiens), sequence (P04626 whole entry, looked up): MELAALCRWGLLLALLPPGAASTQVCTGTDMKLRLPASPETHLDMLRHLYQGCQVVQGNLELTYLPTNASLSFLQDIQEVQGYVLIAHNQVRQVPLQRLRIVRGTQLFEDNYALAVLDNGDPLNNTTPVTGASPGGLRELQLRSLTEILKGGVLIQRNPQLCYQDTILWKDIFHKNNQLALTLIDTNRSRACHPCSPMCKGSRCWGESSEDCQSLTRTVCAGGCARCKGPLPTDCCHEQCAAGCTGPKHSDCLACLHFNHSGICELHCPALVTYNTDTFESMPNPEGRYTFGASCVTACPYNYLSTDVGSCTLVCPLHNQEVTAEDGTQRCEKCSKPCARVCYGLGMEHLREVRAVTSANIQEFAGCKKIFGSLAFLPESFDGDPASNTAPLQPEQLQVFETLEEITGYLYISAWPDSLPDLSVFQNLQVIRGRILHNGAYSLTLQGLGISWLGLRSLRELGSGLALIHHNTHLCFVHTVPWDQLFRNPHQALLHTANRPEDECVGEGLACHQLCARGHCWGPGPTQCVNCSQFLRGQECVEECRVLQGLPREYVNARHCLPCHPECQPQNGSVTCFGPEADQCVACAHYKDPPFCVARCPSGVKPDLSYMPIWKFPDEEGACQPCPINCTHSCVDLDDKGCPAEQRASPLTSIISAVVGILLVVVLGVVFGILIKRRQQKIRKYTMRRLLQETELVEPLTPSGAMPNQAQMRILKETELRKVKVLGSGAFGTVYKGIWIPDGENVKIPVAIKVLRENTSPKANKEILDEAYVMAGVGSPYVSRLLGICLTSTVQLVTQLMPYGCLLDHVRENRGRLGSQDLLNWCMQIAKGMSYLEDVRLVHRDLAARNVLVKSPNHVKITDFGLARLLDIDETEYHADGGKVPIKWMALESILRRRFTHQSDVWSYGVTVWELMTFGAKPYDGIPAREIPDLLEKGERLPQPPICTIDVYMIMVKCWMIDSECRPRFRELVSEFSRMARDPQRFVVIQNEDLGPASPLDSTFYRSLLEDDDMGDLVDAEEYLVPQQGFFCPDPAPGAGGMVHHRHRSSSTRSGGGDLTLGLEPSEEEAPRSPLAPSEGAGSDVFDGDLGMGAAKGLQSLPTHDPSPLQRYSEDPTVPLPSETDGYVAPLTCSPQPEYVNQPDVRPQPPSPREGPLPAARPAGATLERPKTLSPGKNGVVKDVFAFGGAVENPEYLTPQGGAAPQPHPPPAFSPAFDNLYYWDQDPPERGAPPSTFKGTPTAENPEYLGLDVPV

With `COc1cc2ncnc(Nc3cccc(Cl)c3)c2cc1OC`, the IC50 was 46.5 nM.
